Key:
in vitro = settings: human
[1] = system: SARS-CoV-2 stock strain NL/2020; experiment: Antiviral activity in A549-ACE2 cells using viral antigen quantitation (SARS-CoV-2 N protein immunofluorescence); format: cell-based; settings: Severe acute respiratory syndrome coronavirus 2, MOI 0.005, 48 h; for EC50: concentration reducing SARS-CoV-2 infection efficiency by 50% vs vehicle; for EC90: concentration reducing SARS-CoV-2 infection efficiency by 90% vs vehicle

SMILES	CC50 (in vitro) [µM]	EC50 [1] [µM]	EC90 [1] [µM]
COC(=O)c1cc(-c2ccc(N3CCOCC3)cc2)ccc1NC(C#N)[C@H](Cc1c[nH]c2cccc(-c3ccc(-c4cn(CCCOCCOCCOCCNC(=O)CCC[C@H]5SC[C@H]6NC(=O)N[C@H]65)nn4)cc3)c12)NC(=O)OC(C)(C)C (mixture of isomers) [Example 20, Methyl 4-(((1RS,2S)-2-((tert-butoxycarbonyl)amino)-1-cyano-3-(4-(4-(1-(14-oxo-17-((3aR,4R,6aS)-2-oxohexahydro-1H-thieno[3,4-d]imidazol-4-yl)-4,7,10-trioxa-13-azaheptadecyl)-1H-1,2,3-triazol-4-yl)phenyl)-1H-indol-3-yl)propyl)amino)-4'-morpholino-[1,1'-biphenyl]-3-carboxylate]	> 50	2	50
COC(=O)c1cc(-c2cc3ccccc3o2)ccc1NC(C#N)[C@H](Cc1c[nH]c2ccccc12)NC(=O)OC(C)(C)C (mixture of isomers) [Example 12, Methyl 5-(benzofuran-2-yl)-2-(((1RS,2S)-2-((tert-butoxycarbonyl)amino)-1-cyano-3-(1H-indol-3-yl)propyl)amino)benzoate]	> 50	1.85	5
COC(=O)c1cc(-c2ccc(N3CCOCC3)cc2)ccc1NC(C#N)[C@H](Cc1c[nH]c2cccc(Br)c12)NC(=O)OC(C)(C)C (mixture of isomers) [Example 4, Methyl 4-(((1RS,2S)-3-(4-bromo-1H-indol-3-yl)-2-((tert-butoxycarbonyl)amino)-1-cyanopropyl)amino)-4'-morpholino-[1,1'-biphenyl]-3-carboxylate]	> 50	2	7.5
C#Cc1ccc(-c2cccc3[nH]cc(C[C@H](NC(=O)OC(C)(C)C)C(C#N)Nc4ccc(-c5ccc(N6CCOCC6)cc5)cc4C(=O)OC)c23)cc1 (mixture of isomers) [Example 6, Methyl 4-(((1RS,2S)-2-((tert-butoxycarbonyl)amino)-1-cyano-3-(4-(4-ethynylphenyl)-1H-indol-3-yl)propyl)amino)-4'-morpholino-[1,1'-biphenyl]-3-carboxylate]	> 50	8	20
COC(=O)c1cc(-c2ccc3cc[nH]c3c2)ccc1NC(C#N)[C@H](Cc1c[nH]c2ccccc12)NC(=O)OC(C)(C)C (mixture of isomers) [Example 11, Methyl 2-(((1RS,2S)-2-((tert-butoxycarbonyl)amino)-1-cyano-3-(1H-indol-3-yl)propyl)amino)-5-(1H-indol-6-yl)benzoate]	30	4	8
CC(C)(C)OC(=O)N[C@H](Cc1c[nH]c2ccccc12)C(C#N)Nc1ccc(Br)cc1C(=O)c1ccccc1 (mixture of isomers) [Example 26, tert-Butyl ((1RS,2R)-1-((2-benzoyl-4-bromophenyl)amino)-1-cyano-3-(1H-indol-3-yl)propan-2-yl)carbamate]	50	6	28
COC(=O)c1cc(-c2ccc(NC(C)=O)nc2)ccc1NC(C#N)[C@H](Cc1c[nH]c2ccccc12)NC(=O)OC(C)(C)C (mixture of isomers) [Example 29, Methyl 5-(6-acetamidopyridin-3-yl)-2-(((1RS,2S)-2-((tert-butoxycarbonyl)amino)-1-cyano-3-(1H-indol-3-yl)propyl)amino)benzoate]	> 50	3	8
COC(=O)c1cc(-c2ccc3c(c2)OCCO3)ccc1NC(C#N)[C@@H](Cc1c[nH]c2ccccc12)NC(=O)OC(C)(C)C (mixture of isomers) [Example 28, Methyl 2-(((1RS,2R)-2-((tert-butoxycarbonyl)amino)-1-cyano-3-(1H-indol-3-yl)propyl)amino)-5-(2,3-dihydrobenzo[b][1,4]dioxin-6-yl)benzoate]	> 50	7	30
COC(=O)c1cc(-c2cccc3[nH]ncc23)ccc1NC(C#N)[C@H](Cc1c[nH]c2ccccc12)NC(=O)OC(C)(C)C (mixture of isomers) [Example 30, Methyl 2-(((1RS,2S)-2-((tert-butoxycarbonyl)amino)-1-cyano-3-(1H-indol-3-yl)propyl)amino)-5-(1H-indazol-4-yl)benzoate]	10	1	2
COC(=O)c1cc(-c2cnn(CCN3CCOCC3)c2)ccc1NC(C#N)[C@H](Cc1c[nH]c2ccccc12)NC(=O)OC(C)(C)C (mixture of isomers) [Example 25, Methyl 2-(((1RS,2S)-2-((tert-butoxycarbonyl)amino)-1-cyano-3-(1H-indol-3-yl)propyl)amino)-5-(1-(2-morpholinoethyl)-1H-pyrazol-4-yl)benzoate]	> 50	6	9

— patent EP4548976A1, “ANTIVIRAL COMPOUNDS AND COMPOSITIONS THEREFROM” (Consejo Superior De Investigaciones Científicas, priority 2023, dated 2025)
